{
  "source": "patent US10246469B2",
  "about": "“Biaryl kinase inhibitors” (BRISTOL-MYERS SQUIBB COMPANY, priority 2015, dated 2019)",
  "target": "T1, GST-Xa-hAAK1 (Homo sapiens, UniProt Q2M2I8)",
  "T1 construct": "GST (N); Factor Xa cleavage site (Xa) (internal); made in house",
  "T1 sequence (Q2M2I8 whole entry)": "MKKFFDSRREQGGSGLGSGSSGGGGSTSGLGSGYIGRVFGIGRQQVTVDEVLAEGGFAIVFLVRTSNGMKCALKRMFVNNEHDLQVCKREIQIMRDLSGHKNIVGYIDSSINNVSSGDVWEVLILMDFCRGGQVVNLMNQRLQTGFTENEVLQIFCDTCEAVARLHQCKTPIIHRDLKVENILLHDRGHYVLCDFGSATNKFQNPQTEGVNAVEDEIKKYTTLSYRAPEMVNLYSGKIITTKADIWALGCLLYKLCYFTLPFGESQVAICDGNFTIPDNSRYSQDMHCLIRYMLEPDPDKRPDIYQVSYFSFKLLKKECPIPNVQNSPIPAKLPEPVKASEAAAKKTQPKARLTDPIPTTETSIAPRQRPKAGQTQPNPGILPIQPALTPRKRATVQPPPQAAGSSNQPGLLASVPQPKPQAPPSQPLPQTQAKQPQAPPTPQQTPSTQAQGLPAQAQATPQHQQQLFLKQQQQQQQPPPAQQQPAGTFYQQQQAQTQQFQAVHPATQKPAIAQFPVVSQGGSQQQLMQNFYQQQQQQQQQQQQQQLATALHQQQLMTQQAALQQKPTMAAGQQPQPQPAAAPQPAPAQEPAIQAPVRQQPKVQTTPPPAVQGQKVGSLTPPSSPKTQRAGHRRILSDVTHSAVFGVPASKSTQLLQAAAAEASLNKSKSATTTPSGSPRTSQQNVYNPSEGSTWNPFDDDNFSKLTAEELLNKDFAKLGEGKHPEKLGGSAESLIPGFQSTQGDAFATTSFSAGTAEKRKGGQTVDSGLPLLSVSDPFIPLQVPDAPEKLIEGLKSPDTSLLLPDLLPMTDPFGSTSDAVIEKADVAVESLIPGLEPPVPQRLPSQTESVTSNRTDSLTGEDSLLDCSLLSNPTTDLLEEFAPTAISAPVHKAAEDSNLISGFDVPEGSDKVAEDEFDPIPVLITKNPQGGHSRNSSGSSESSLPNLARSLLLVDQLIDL",
  "test": "AAK1 Kinase Assay",
  "format": "biochemical",
  "conditions": "bacterially expressed GST-Xa-hAAK1 3.5 nM; ATP 22 μM; fluoresceinated peptide 1.5 μM; 3 hours at room temperature; Caliper LabChip 3000",
  "procedure": "The assays were performed in U-bottom 384-well plates. The final assay volume was 30 μl prepared from 15 μl additions of enzyme and substrates (fluoresceinated peptide (5-FAM)-Aha-[…]-NH2 and ATP) and test compounds in assay buffer (10 mM Tris-HCL pH 7.4, 10 mM MgCl2, 0.01% Tween-20 and 1.0 mM DTT). The reactions were initiated by the combination of bacterially expressed, GST-Xa-hAAK1 with substrates and test compounds. The reactions were incubated at room temperature for 3 hours and terminated by adding 60 μl of 35 mM EDTA buffer to each sample. The reactions were analyzed on the Caliper LabChip 3000 (Caliper, Hopkinton, Mass.) by electrophoretic separation of the fluorescent substrate and phosphorylated product. […] The final concentration of reagents in the assays are ATP, 22 μM; (5-FAM)-Aha-[…]-NH2, 1.5 μM; GST-Xa-hAAK1, 3.5 nM; and DMSO, 1.6%. […] Compounds were dissolved at 10 mM in dimethylsulfoxide (DMSO) and evaluated at eleven concentrations. IC50 values were derived by non-linear regression analysis.",
  "data": [
    {"compound": "CC(C)C[C@](C)(N)COc1ccc(-c2ccnc(NC3CCCOC3)c2)cc1Cl", "note": "(mixture of isomers) [Example 338, 4-(4-(((S)-2-amino-2,4-dimethylpentyl)oxy)-3-chlorophenyl)-N-(tetrahydro-2H-pyran-3-yl)pyridin-2-amine]", "values": [
      {"measurement": "IC50", "result": 35, "unit": "nM"}
    ]},
    {"compound": "CC(C)C[C@](C)(N)COc1ccc(-c2ccnc(NC3CCCOC3)c2)cc1C(F)(F)F", "note": "(mixture of isomers) [Example 475, 4-(4-((S)-2-amino-2,4-dimethylpentyloxy)-3-(trifluoromethyl)phenyl)-N-(tetrahydro-2H-pyran-3-yl)pyridin-2-amine]", "values": [
      {"measurement": "IC50", "result": 15, "unit": "nM"}
    ]},
    {"compound": "CC(C)C[C@](C)(N)COc1ccc(-c2ccnc(NC3CCCOC3)c2)cc1Cl", "note": "(single isomer, unassigned) [Example 339]", "values": [
      {"measurement": "IC50", "result": 17, "unit": "nM"}
    ]},
    {"compound": "CC(C)C[C@](C)(N)COc1ccc(-c2ccnc(NC3CCCOC3)c2)cc1Cl", "note": "(single isomer, unassigned) [Example 340]", "values": [
      {"measurement": "IC50", "result": 110, "unit": "nM"}
    ]},
    {"compound": "CC(C)C[C@](C)(N)COc1ccc(-c2ccnc(NC3CCCOC3)c2)cc1C(F)(F)F", "note": "(single isomer, unassigned) [Example 476]", "values": [
      {"measurement": "IC50", "result": 125, "unit": "nM"}
    ]},
    {"compound": "CC(C)C[C@](C)(N)COc1ccc(-c2ccnc(NC3CCCOC3)c2)cc1C(F)(F)F", "note": "(single isomer, unassigned) [Example 477]", "values": [
      {"measurement": "IC50", "result": 50, "unit": "nM"}
    ]},
    {"compound": "Cc1n[nH]c(C)c1-c1ccc(OC[C@@](C)(N)CC(C)C)c(F)c1", "note": "[Example 251, (S)-1-(4-(3,5-dimethyl-1H-pyrazol-4-yl)-2-fluorophenoxy)-2,4-dimethylpentan-2-amine]", "values": [
      {"measurement": "IC50", "result": 310, "unit": "nM"}
    ]},
    {"compound": "Cc1nc2nccc(-c3ccc(OC[C@@](C)(N)CC(C)C)c(C#N)c3)c2nc1C", "note": "[Example 252, (S)-2-((2-amino-2,4-dimethylpentyl)oxy)-5-(2,3-dimethylpyrido[2,3-b]pyrazin-8-yl)benzonitrile]", "values": [
      {"measurement": "IC50", "result": 285, "unit": "nM"}
    ]},
    {"compound": "CC(C)C[C@](C)(N)COc1ccc(-c2ccnc3nccnc23)cc1F", "note": "[Example 253, (S)-1-(2-fluoro-4-(pyrido[2,3-b]pyrazin-8-yl)phenoxy)-2,4-dimethylpentan-2-amine]", "values": [
      {"measurement": "IC50", "result": 537, "unit": "nM"}
    ]},
    {"compound": "CC(C)C[C@](C)(N)COc1ccc(-c2ccnc3[nH]c(N)nc23)cc1C#N", "note": "[Example 254, (S)-2-((2-amino-2,4-dimethylpentyl)oxy)-5-(2-amino-3H-imidazo[4,5-b]pyridin-7-yl)benzonitrile]", "values": [
      {"measurement": "IC50", "result": 22, "unit": "nM"}
    ]},
    {"compound": "CC(C)C[C@](C)(N)COc1ccc(-c2ccnc3[nH]c(N)nc23)cc1C(F)(F)F", "note": "[Example 255, (S)-7-(4-((2-amino-2,4-dimethylpentyl)oxy)-3-(trifluoromethyl)phenyl)-3H-imidazo [4,5-b]pyridin-2-amine]", "values": [
      {"measurement": "IC50", "result": 42, "unit": "nM"}
    ]},
    {"compound": "CC(C)C[C@](C)(N)COc1ccc(-c2ccnc(Nc3nccs3)c2)cc1C(F)(F)F", "note": "[Example 256, (S)—N-(4-(4-((2-amino-2,4-dimethylpentyl)oxy)-3-(trifluoromethyl)phenyl)pyridin-2-yl)thiazol-2-amine]", "values": [
      {"measurement": "IC50", "result": 0.82, "unit": "nM"}
    ]},
    {"compound": "CC(C)C[C@](C)(N)COc1ccc(-c2ccnc(Nc3nccs3)c2)cc1Cl", "note": "[Example 257, (S)—N-(4-(4-((2-amino-2,4-dimethylpentyl)oxy)-3-chlorophenyl)pyridin-2-yl)thiazol-2-amine]", "values": [
      {"measurement": "IC50", "result": 0.45, "unit": "nM"}
    ]},
    {"compound": "CC(C)C[C@](C)(N)COc1ccc(-c2ccnc(NC(=O)c3nccs3)c2)cc1C(F)(F)F", "note": "[Example 258, (S)—N-(4-(4-((2-amino-2,4-dimethylpentyl)oxy)-3-(trifluoromethyl)phenyl)pyridin-2-yl)thiazole-2-carboxamide]", "values": [
      {"measurement": "IC50", "result": 0.47, "unit": "nM"}
    ]},
    {"compound": "Cc1cc(-c2ccnc3[nH]c(N)nc23)ccc1OC[C@@](C)(N)CC(C)C", "note": "[Example 259, (S)-7-(4-((2-amino-2,4-dimethylpentyl)oxy)-3-methylphenyl)-3H-imidazo[4,5-b]pyridin-2-amine]", "values": [
      {"measurement": "IC50", "result": 229, "unit": "nM"}
    ]},
    {"compound": "CC(C)C[C@](C)(N)COc1ccc(-c2ccnc(NC(=O)c3nccs3)c2)cc1Cl", "note": "[Example 260, (S)—N-(4-(4-((2-amino-2,4-dimethylpentyl)oxy)-3-chlorophenyl)pyridin-2-yl)thiazole-2-carboxamide]", "values": [
      {"measurement": "IC50", "result": 0.48, "unit": "nM"}
    ]},
    {"compound": "CC(C)C[C@](C)(N)COc1ccc(-c2ccnc(NC(=O)c3nccs3)c2)cc1C#N", "note": "[Example 261, (S)—N-(4-(4-((2-amino-2,4-dimethylpentyl)oxy)-3-cyanophenyl)pyridin-2-yl)thiazole-2-carboxamide]", "values": [
      {"measurement": "IC50", "result": 0.36, "unit": "nM"}
    ]},
    {"compound": "Cc1csc(Nc2cc(-c3ccc(OC[C@@](C)(N)CC(C)C)c(Cl)c3)ccn2)n1", "note": "[Example 262, (S)—N-(4-(4-((2-amino-2,4-dimethylpentyl)oxy)-3-chlorophenyl)pyridin-2-yl)-4-methylthiazol-2-amine]", "values": [
      {"measurement": "IC50", "result": 1.9, "unit": "nM"}
    ]},
    {"compound": "Cc1cc(-c2ccnc3ccnn23)cnc1OC[C@](C)(N)CC(C)C", "note": "[Example 264, (R)-2,4-dimethyl-1-((3-methyl-5-(pyrazolo[1,5-a]pyrimidin-7-yl)pyridin-2-yl)oxy)pentan-2-amine]", "values": [
      {"measurement": "IC50", "result": 79, "unit": "nM"}
    ]},
    {"compound": "CC(C)C[C@@](C)(N)COc1ncc(-c2ccnc3ccnn23)cc1Cl", "note": "[Example 265, (R)-1-((3-chloro-5-(pyrazolo[1,5-a]pyrimidin-7-yl)pyridin-2-yl)oxy)-2,4-dimethylpentan-2-amine]", "values": [
      {"measurement": "IC50", "result": 55, "unit": "nM"}
    ]},
    {"compound": "Cc1cc(-c2ccnc3cc(C4CC4)nn23)cnc1OC[C@](C)(N)CC(C)C", "note": "[Example 266, (R)-1-((5-(2-cyclopropylpyrazolo[1,5-a]pyrimidin-7-yl)-3-methylpyridin-2-yl)oxy)-2,4-dimethylpentan-2-amine]", "values": [
      {"measurement": "IC50", "result": 265, "unit": "nM"}
    ]},
    {"compound": "Cc1cc(-c2ccc(OC[C@@](C)(N)CC(C)C)c3ncsc23)ccn1", "note": "[Example 267, (S)-2,4-dimethyl-1-((7-(2-methylpyridin-4-yl)benzo[d]thiazol-4-yl)oxy)pentan-2-amine]", "values": [
      {"measurement": "IC50", "result": 362, "unit": "nM"}
    ]},
    {"compound": "COC(=O)Nc1cc(-c2ccc(OC[C@@](C)(N)CC(C)C)c3ncsc23)ccn1", "note": "[Example 269, (S)-methyl (4-(4-((2-amino-2,4-dimethylpentyl)oxy)benzo[d]thiazol-7-yl)pyridin-2-yl)carbamate]", "values": [
      {"measurement": "IC50", "result": 3.4, "unit": "nM"}
    ]},
    {"compound": "Cc1nc2c(-c3ccc(OC[C@@](C)(N)CC(C)C)c(C(F)(F)F)c3)ncnc2s1", "note": "[Example 270, (S)-2,4-dimethyl-1-(4-(2-methylthiazolo[5,4-d]pyrimidin-7-yl)-2-(trifluoromethyl)phenoxy)pentan-2-amine]", "values": [
      {"measurement": "IC50", "result": 8.4, "unit": "nM"}
    ]},
    {"compound": "Cc1nc2c(-c3ccc(OC[C@@](C)(N)CC(C)C)c(C#N)c3)ncnc2s1", "note": "[Example 271, (S)-2-((2-amino-2,4-dimethylpentyl)oxy)-5-(2-methylthiazolo[5,4-d]pyrimidin-7-yl)benzonitrile]", "values": [
      {"measurement": "IC50", "result": 4.1, "unit": "nM"}
    ]},
    {"compound": "CC(C)C[C@](C)(N)COc1ncc(-c2ccnc3ccnn23)cc1Cl", "note": "[Example 272, (S)-1-((3-chloro-5-(pyrazolo[1,5-a]pyrimidin-7-yl)pyridin-2-yl)oxy)-2,4-dimethylpentan-2-amine]", "values": [
      {"measurement": "IC50", "result": 0.8, "unit": "nM"}
    ]},
    {"compound": "Cc1cc(-c2ccnc3ccnn23)cnc1OC[C@@](C)(N)CC(C)C", "note": "[Example 275, (S)-2,4-dimethyl-1-((3-methyl-5-(pyrazolo[1,5-a]pyrimidin-7-yl)pyridin-2-yl)oxy)pentan-2-amine]", "values": [
      {"measurement": "IC50", "result": 2.2, "unit": "nM"}
    ]},
    {"compound": "CC(C)C[C@](C)(N)COc1ccc(-c2ccnc3ccnn23)nc1CF", "note": "[Example 276, (S)-1-((2-(fluoromethyl)-6-(pyrazolo[1,5-a]pyrimidin-7-yl)pyridin-3-yl)oxy)-2,4-dimethylpentan-2-amine]", "values": [
      {"measurement": "IC50", "result": 0.9, "unit": "nM"}
    ]},
    {"compound": "CC(C)CC(N)(CO)COc1cnc(-c2ccnc(C(F)F)c2)cc1C(F)F", "note": "(centres unmarked) [Example 277, 2-amino-2-(((2′,4-bis(difluoromethyl)-[2,4′-bipyridin]-5-yl)oxy)methyl)-4-methylpentan-1-ol]", "values": [
      {"measurement": "IC50", "result": 1.8, "unit": "nM"}
    ]}
  ]
}
